Measured values reported in paper PMC3493468 (Chembiochem : a European journal of chemical biology, 2011).
Peptide text beside a SMILES is read from it. * marks the point of attachment. Palmitoyl = CCCCCCCCCCCCCCCC(=O)*

Legend:
[1] = test system: IGF-1 induced activity of AKT; assay: IGF-1-induced AKT activation; format: cell-based; conditions: MCF-7 cells, compound 1 hour, then IGF-1 25 ng/ml for 20 min; Figure 5
SMO [2] = conditions: cited from earlier work
[3] = Biodistribution of 3H-labeled lipopeptide; format: in vivo, mice; conditions: subcutaneous, topical, peritoneal or oral administration; Supplementary Figure S6
SMO [4] = assay: Inhibition of SMO function / Hedgehog pathway; format: cell-based

CCCCCCCCCCCCCCCC(=O)N[C@@H](CCCNC(=N)N)C(=O)N[C@@H](CC(N)=O)C(=O)N[C@@H](CC(N)=O)C(=O)N[C@@H](CO)C(=O)N[C@@H](CCCNC(=N)N)C(=O)N[C@@H](CC(C)C)C(=O)NCC(=O)N[C@@H](CC(N)=O)C(=O)NCC(=O)N[C@H](C(=O)N[C@@H](CC(C)C)C(=O)N[C@@H](Cc1ccc(O)cc1)C(N)=O)C(C)C [Peptide 16] (Palmitoyl-RNNSRLGNGVLY-NH2)
inhibition of IGF-1 induced activity of AKT [1]: inhibited IGF-1 induced activity of AKT in a dose-dependent manner

Ac-(ε-Pal)-KLTYAWHTSFKAL-NH2 [SMOi2-43]
in vitro activity as inhibitor of the Hedgehog pathway (SMO [2]): potent inhibitor

Ac-AKFSTHWAYTLK-(ε-Pal), all-D [SMOi2-17]
in vitro activity as inhibitor of the Hedgehog pathway (SMO [2]): subnanomolar range
entry into circulation [3]: did not enter the circulation

Ac-LTYAWHTSFKAL-NH2 [SMOi2-9]
inhibition of SMO function (SMO [4]): inactive
